Molecules are shown by their SMILES.

Consider 24 compounds from ChEMBL document CHEMBL4052645, “Discovery of potent and efficacious pyrrolopyridazines as dual JAK1/3 inhibitors” (Bioorg Med Chem Lett, 2017).

Test [1] addresses JAK3/JAK1 (Homo sapiens, UniProt P23458+P52333). Kind of test: Inhibition of JAK1/JAK3 in human whole blood assessed as reduction in IL-2 induced IFN-gamma production after 18 hrs by ELISA. Type of test: protein-complex assay.
Test [2] concerns the target Non-receptor tyrosine-protein kinase TYK2 (Homo sapiens, UniProt P29597). The experiment in a line: Inhibition of His-tagged TYK2 (unknown origin) after 3 hrs by Caliper assay.
Test [3] concerns the target T1, Tyrosine-protein kinase JAK3 (Homo sapiens, UniProt P52333).
T1 sequence (P52333 whole entry): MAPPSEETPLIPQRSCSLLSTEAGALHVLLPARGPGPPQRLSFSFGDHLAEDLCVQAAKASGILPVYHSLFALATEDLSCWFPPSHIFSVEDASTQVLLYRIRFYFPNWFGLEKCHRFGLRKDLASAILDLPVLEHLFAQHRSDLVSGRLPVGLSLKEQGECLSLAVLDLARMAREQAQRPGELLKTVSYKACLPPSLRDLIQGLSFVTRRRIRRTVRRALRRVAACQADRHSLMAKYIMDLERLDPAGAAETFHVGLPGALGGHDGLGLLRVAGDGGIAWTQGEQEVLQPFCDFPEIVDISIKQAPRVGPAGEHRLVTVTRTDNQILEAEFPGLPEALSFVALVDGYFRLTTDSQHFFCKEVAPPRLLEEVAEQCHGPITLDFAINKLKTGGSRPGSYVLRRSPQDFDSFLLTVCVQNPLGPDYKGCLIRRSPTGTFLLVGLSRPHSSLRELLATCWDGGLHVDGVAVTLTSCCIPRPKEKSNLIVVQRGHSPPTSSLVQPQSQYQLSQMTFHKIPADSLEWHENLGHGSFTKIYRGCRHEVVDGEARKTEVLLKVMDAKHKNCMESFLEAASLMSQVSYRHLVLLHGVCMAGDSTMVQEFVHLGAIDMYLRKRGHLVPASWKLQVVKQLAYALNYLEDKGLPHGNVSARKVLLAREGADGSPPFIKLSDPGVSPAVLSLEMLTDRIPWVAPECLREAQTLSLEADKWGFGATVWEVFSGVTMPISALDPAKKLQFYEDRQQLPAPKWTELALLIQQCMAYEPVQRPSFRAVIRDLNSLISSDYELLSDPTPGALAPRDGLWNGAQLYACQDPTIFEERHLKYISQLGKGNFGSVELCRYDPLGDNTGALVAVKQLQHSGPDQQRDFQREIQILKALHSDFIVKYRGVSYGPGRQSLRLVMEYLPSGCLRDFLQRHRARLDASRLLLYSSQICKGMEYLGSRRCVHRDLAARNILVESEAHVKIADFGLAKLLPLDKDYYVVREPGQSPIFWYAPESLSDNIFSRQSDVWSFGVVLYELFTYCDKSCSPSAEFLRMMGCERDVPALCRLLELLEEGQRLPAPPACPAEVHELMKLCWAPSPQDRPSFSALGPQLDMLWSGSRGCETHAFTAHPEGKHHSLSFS
Kind of test: Inhibition of JAK3 (unknown origin) using CSKtide as substrate after 30 mins in presence of [gamma33P]ATP by liquid scintillation counting method.

The target in test [4] is Tyrosine-protein kinase JAK1 (Homo sapiens, UniProt P23458). The experiment in a line: Inhibition of GST-tagged JAK1 (unknown origin) after 3 hrs by Caliper assay.
Chain of Tyrosine-protein kinase JAK1 (P23458 whole entry): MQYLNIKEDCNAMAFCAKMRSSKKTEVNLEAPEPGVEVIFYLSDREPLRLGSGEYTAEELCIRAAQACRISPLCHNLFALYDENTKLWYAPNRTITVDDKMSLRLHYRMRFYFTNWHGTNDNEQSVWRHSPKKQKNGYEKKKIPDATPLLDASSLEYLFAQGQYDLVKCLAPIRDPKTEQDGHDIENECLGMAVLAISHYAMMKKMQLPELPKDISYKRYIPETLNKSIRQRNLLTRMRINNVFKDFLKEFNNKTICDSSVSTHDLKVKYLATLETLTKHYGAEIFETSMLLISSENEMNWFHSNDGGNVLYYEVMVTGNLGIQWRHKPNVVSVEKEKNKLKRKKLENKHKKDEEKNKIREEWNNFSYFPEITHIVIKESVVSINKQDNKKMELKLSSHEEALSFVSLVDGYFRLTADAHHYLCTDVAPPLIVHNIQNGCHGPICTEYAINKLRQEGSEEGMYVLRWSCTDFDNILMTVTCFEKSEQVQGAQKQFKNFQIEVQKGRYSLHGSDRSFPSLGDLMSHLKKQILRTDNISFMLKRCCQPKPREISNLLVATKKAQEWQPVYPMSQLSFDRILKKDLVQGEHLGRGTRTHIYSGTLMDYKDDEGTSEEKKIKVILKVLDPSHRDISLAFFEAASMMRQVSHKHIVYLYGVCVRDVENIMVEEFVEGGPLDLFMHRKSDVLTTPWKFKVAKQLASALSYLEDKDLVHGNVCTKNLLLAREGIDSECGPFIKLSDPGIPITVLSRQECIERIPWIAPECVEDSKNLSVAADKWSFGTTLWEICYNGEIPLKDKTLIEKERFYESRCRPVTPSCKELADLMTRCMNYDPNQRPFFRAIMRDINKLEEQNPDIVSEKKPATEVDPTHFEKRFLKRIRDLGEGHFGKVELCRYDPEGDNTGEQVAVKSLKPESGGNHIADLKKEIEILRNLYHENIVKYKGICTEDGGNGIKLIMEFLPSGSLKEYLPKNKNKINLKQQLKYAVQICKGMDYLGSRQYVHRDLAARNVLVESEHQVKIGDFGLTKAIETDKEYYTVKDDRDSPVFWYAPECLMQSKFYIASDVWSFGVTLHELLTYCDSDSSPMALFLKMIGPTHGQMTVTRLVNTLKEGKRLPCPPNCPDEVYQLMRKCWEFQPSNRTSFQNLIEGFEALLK
Test [5] has as its target Tyrosine-protein kinase JAK2 (Homo sapiens, UniProt O60674). Kind of test: Inhibition of GST-tagged JAK2 (unknown origin) after 3 hrs by Caliper assay.
Test [6] deals with Voltage-gated inwardly rectifying potassium channel KCNH2 (Homo sapiens, UniProt Q12809). The experiment in a line: Inhibition of human ERG by flux-based assay.
Chain of Voltage-gated inwardly rectifying potassium channel KCNH2 (Q12809 whole entry): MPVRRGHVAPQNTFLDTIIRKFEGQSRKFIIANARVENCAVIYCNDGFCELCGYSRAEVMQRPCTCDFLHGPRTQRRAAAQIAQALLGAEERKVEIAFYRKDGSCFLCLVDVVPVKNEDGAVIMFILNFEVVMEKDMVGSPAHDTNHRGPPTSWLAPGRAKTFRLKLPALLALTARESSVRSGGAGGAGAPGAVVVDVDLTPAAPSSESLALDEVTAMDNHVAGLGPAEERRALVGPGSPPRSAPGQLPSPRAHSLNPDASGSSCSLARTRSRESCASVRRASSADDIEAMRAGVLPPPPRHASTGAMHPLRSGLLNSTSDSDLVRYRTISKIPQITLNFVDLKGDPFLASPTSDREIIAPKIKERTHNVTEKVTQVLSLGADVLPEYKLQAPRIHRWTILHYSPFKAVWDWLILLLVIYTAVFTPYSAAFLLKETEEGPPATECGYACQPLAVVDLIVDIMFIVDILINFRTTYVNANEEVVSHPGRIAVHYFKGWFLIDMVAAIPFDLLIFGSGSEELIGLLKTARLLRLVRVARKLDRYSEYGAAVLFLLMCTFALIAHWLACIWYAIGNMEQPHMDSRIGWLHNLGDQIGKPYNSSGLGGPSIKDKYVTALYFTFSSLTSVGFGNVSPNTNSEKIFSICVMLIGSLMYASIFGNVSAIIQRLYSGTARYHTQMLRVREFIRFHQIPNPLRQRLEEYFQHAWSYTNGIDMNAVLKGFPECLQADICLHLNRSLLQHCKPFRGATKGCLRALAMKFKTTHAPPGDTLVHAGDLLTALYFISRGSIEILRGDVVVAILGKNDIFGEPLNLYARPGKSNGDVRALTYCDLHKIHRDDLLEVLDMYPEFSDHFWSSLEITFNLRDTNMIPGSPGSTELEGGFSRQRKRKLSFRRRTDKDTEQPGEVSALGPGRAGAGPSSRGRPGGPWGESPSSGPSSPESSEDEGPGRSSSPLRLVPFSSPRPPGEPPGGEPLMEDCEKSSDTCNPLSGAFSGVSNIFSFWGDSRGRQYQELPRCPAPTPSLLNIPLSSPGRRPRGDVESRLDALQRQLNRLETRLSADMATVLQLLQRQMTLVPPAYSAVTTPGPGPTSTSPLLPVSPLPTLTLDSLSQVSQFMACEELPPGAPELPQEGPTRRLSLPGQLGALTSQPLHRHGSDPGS
The nature of test [7]: Selectivity ratio of IC50 for JAK2 dependent EPO-induced STAT5A phosphorylation in human TF1 cells to IC50 for JAK1/JAK3 dependent IL2-induced STAT3 phosphorylation in human PBMC derived T-cells.

Chain of JAK3/JAK1 (P23458 whole entry, one chain of several): as the sequence (P23458 whole entry) above
Chain of Tyrosine-protein kinase JAK2 (O60674 whole entry): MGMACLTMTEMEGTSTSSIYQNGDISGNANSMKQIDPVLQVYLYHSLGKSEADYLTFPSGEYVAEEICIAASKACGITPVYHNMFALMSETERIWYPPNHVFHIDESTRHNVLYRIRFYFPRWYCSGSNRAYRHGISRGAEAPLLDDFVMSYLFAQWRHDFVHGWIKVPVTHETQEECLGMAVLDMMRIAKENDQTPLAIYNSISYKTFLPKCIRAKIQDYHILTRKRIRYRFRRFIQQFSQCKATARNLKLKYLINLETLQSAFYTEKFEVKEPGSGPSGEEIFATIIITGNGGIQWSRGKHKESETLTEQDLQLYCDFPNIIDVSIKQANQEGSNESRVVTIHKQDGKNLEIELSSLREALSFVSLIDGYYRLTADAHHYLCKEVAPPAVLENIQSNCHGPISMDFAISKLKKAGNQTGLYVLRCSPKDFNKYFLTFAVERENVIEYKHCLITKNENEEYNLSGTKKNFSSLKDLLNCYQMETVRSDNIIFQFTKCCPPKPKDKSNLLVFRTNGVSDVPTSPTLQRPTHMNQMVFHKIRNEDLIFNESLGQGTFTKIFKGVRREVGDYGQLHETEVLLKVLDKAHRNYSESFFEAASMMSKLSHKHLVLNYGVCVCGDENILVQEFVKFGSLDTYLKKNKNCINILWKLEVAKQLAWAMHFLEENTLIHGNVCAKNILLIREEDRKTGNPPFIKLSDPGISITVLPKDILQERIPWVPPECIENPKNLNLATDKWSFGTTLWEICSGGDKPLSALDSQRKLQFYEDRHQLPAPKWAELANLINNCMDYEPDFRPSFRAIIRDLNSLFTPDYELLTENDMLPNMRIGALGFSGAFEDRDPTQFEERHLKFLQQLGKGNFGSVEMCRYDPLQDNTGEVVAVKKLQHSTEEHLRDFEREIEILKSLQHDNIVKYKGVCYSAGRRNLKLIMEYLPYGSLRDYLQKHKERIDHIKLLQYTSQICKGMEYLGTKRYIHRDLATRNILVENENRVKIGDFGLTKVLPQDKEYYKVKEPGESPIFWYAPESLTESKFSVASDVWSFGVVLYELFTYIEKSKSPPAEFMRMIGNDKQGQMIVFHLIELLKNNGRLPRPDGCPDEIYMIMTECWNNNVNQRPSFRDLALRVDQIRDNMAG
Chain of Non-receptor tyrosine-protein kinase TYK2 (P29597 whole entry): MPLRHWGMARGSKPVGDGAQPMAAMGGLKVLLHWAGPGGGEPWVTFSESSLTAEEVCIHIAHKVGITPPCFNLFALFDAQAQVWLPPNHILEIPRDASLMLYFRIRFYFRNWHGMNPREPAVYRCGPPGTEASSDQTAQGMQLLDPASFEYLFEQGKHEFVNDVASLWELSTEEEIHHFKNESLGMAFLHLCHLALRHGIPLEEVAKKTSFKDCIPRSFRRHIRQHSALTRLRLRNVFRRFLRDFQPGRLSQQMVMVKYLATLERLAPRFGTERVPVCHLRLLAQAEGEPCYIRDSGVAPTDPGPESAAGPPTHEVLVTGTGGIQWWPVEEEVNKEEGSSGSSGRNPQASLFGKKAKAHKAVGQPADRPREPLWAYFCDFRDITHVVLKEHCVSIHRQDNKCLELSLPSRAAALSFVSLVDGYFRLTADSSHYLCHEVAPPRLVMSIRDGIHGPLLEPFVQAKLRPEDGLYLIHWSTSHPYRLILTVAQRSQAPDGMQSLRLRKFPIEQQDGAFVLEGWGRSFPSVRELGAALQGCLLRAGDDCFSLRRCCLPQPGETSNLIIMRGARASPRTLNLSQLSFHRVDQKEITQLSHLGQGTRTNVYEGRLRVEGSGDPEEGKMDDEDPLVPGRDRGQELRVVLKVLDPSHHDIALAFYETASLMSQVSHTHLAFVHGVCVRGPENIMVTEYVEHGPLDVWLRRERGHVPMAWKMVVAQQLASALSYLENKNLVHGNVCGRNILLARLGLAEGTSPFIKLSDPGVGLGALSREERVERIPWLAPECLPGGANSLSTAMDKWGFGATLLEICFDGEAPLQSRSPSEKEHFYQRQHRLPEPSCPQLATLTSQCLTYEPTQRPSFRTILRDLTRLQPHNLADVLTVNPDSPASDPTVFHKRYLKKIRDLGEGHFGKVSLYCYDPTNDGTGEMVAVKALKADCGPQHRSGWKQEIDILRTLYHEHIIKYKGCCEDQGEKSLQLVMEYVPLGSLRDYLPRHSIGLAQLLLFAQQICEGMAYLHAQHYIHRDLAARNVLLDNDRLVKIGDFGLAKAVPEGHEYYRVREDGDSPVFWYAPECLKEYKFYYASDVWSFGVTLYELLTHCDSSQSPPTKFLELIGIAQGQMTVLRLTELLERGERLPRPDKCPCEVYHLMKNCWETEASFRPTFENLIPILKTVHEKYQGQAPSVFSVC

For the compound `CC1(C)[C@H](Nc2c(C(N)=O)cnn3cc(-c4cncc(F)c4)cc23)CC[C@]1(C)N`, the IC50 came to 220 nM in test [1]; 60 nM in test [2]; 1.9 nM in test [3]; 6.6 nM in test [4]; 44 nM in test [5].
As for `Cc1ccncc1-c1cc2c(N[C@@H]3CC[C@](C)(N)C3(C)C)c(C(N)=O)cnn2c1`, the IC50 is 97 nM in test [1], 180 nM in test [2], 18 µM in test [6] and 140 nM in test [5]. For the same compound, the “Ratio IC50” value in test [7] is recorded as 120.
As to `Cc1cnccc1-c1cc2c(N[C@@H]3CC[C@](C)(N)C3(C)C)c(C(N)=O)cnn2c1`, the IC50 in test [1] is 75 nM; in test [2], 29 nM; in test [6] it was > 80 µM; in test [3] it was 4 nM; in test [4], 2.4 nM; in test [5], 19 nM. Besides, in test [7], the “Ratio IC50” value worked out at 250.
Consider `CC1(C)[C@H](Nc2c(C(N)=O)cnn3cc(-c4ccc(F)cc4)cc23)CC[C@]1(C)N`, for which the IC50 is 420 nM in test [1]; 14 nM in test [2]; 10.2 µM in test [6]; 2.1 nM in test [3]; 1.2 nM in test [4]; 27 nM in test [5]. The “Ratio IC50” value in test [7] worked out at 230.
As to `CC1(C)[C@H](Nc2c(C(N)=O)cnn3cc(-c4ccc(C#N)nc4)cc23)CC[C@]1(C)N`, the IC50 is 430 nM in test [1]; 47 nM in test [2]; 1 nM in test [3]; 6.6 nM in test [4]; 29 nM in test [5].
On to `COc1ccc(-c2cc3c(N[C@@H]4CC[C@](C)(N)C4(C)C)c(C(N)=O)cnn3c2)cc1`, for which the IC50 was 170 nM in test [1]; 9.2 nM in test [2]; 13.8 µM in test [6]; 1.5 nM in test [3]; 0.6 nM in test [4]; 15 nM in test [5]. In addition, the “Ratio IC50” value in test [7] is reported as 46.
Consider `COc1cccc(-c2cc3c(N[C@@H]4CC[C@](C)(N)C4(C)C)c(C(N)=O)cnn3c2)c1`, for which the IC50 is 200 nM in test [1]; 12 nM in test [2]; 7.2 µM in test [6]; 0.4 nM in test [3]; 1 nM in test [4]; 15 nM in test [5]. Also, the “Ratio IC50” value in test [7] was 305.
Regarding `CC1(C)[C@H](Nc2c(C(N)=O)cnn3cc(-c4cccc(C#N)c4)cc23)CC[C@]1(C)N`, the concentration for half-maximal inhibition (IC50) in test [1] is > 1000 nM; in test [2], 55 nM; in test [3], 3.8 nM; in test [4], 7.2 nM; in test [5], 47 nM.
For `CC1(C)[C@H](Nc2c(C(N)=O)cnn3cc(-c4cncnc4)cc23)CC[C@]1(C)N`, the IC50 in test [1] was 240 nM; in test [2] it was 190 nM; in test [6], 8.5 µM; in test [3], 11 nM; in test [4], 28 nM; in test [5], 160 nM. Moreover, the “Ratio IC50” value in test [7] worked out at 180.
Consider `CC1(C)[C@H](Nc2c(C(N)=O)cnn3cc(-c4ccccc4C#N)cc23)CC[C@]1(C)N`, for which the IC50 in test [1] was found to be 500 nM; in test [2], 34 nM; in test [3], 1.9 nM; in test [4], 1.6 nM; in test [5], 25 nM. Further, the “Ratio IC50” value in test [7] amounted to 240.
`CC1(C)[C@H](Nc2c(C(N)=O)cnn3cc(-c4ccccc4Cl)cc23)CC[C@]1(C)N`: the half-inhibitory concentration (IC50) in test [1] is > 1000 nM; in test [2], 47 nM; in test [3] it was 1.3 nM; in test [4], 0.8 nM; in test [5], 27 nM.
In the case of `Cc1cccc(-c2cc3c(N[C@@H]4CC[C@](C)(N)C4(C)C)c(C(N)=O)cnn3c2)c1`, the IC50 in test [1] worked out at 700 nM; in test [2] it was 7.9 nM; in test [6], 7.7 µM; in test [3], 0.9 nM; in test [4], 0.9 nM; in test [5], 11 nM. Moreover, the “Ratio IC50” value in test [7] came to 50.
For `CCOc1ccc(-c2cc3c(N[C@@H]4CC[C@](C)(N)C4(C)C)c(C(N)=O)cnn3c2)cn1`, the IC50 in test [1] was 800 nM; in test [2] it was 38 nM; in test [6], 17 µM; in test [3], 1.1 nM; in test [4], 4 nM; in test [5], 30 nM. Also, the “Ratio IC50” value in test [7] was 120.
`Cc1ccc(-c2cc3c(N[C@@H]4CC[C@](C)(N)C4(C)C)c(C(N)=O)cnn3c2)cc1`: the IC50 was > 2000 nM in test [1]; 8.6 nM in test [2]; 0.7 nM in test [3]; 0.8 nM in test [4]; 14 nM in test [5].
With `Cc1cc(-c2cc3c(N[C@@H]4CC[C@](C)(N)C4(C)C)c(C(N)=O)cnn3c2)ccn1`, the IC50 was 55 nM in test [1]; 5.7 nM in test [2]; 30 µM in test [6]; 0.6 nM in test [3]; 0.6 nM in test [4]; 3.5 nM in test [5]. In addition, the “Ratio IC50” value in test [7] was determined as 8.
For `COc1cc(-c2cc3c(N[C@@H]4CC[C@](C)(N)C4(C)C)c(C(N)=O)cnn3c2)ccn1`, the half-inhibitory concentration (IC50) in test [1] was 350 nM; in test [2] it was 36 nM; in test [3], 2.8 nM; in test [4], 2.3 nM; in test [5], 36 nM. Besides, in test [7], the “Ratio IC50” value worked out at 86.
Take `CC1(C)[C@H](Nc2c(C(N)=O)cnn3cc(-c4cccc(Cl)c4)cc23)CC[C@]1(C)N`: the IC50 in test [1] is 780 nM; in test [2] it was 20 nM; in test [3] it was 1 nM; in test [4], 1.3 nM; in test [5], 17 nM.
The corresponding values for `CC1(C)[C@H](Nc2c(C(N)=O)cnn3cc(-c4ccccc4F)cc23)CC[C@]1(C)N` are 630 nM, 15 nM, 1.5 nM, 1.2 nM and 17 nM.
Turning to `CC1(C)[C@H](Nc2c(C(N)=O)cnn3cc(-c4cccnc4)cc23)CC[C@]1(C)N`, the IC50 was determined as 110 nM in test [1], 34 nM in test [2], 0.6 nM in test [3] and 11 nM in test [5].
Turning to `CC1(C)[C@H](Nc2c(C(N)=O)cnn3cc(-c4ccc(C#N)cc4)cc23)CC[C@]1(C)N`, the 50% inhibitory concentration (IC50) worked out at 66 nM in test [1]; 8.6 nM in test [2]; 1 nM in test [3]; 0.9 nM in test [4]; 7.3 nM in test [5].
For `CC1(C)[C@H](Nc2c(C(N)=O)cnn3cc(-c4ccc(Cl)cc4)cc23)CC[C@]1(C)N`, the IC50 in test [2] amounted to 10 nM; in test [3] it was 0.8 nM; in test [4], 0.9 nM; in test [5], 15 nM.
For `CC1(C)[C@H](Nc2c(C(N)=O)cnn3cc(-c4cccc(F)c4)cc23)CC[C@]1(C)N`, the concentration for half-maximal inhibition (IC50) is > 1000 nM in test [1]; 22 nM in test [2]; 7.6 µM in test [6]; 1.6 nM in test [3]; 1.2 nM in test [4]; 22 nM in test [5].
Turning to `CC1(C)[C@H](Nc2c(C(N)=O)cnn3cc(-c4ccnc(F)c4)cc23)CC[C@]1(C)N`, the IC50 in test [1] came out at 270 nM; in test [2] it was 59 nM; in test [3], 1.6 nM; in test [4], 3.3 nM; in test [5], 38 nM.
The matching figures for `Cc1ccccc1-c1cc2c(N[C@@H]3CC[C@](C)(N)C3(C)C)c(C(N)=O)cnn2c1`: 490 nM, 51 nM, 1.8 nM, 0.7 nM and 49 nM.

The IC50 is the midpoint of a concentration-inhibition curve.
